In one series the target is T1, human A2AR (Homo sapiens, UniProt P29274).
T1 construct: expressed in transfected cells; host or cells: HEK 293T
The series is described as follows: Radioligand competitive binding assay, [3H] ZM 241385 displacement. To be noted: for Ki: membranes of transfected HEK 293T cells, 1 nM [3H] ZM 241385, read-out: Ki A2A; for A1/A2A (selectivity): ratio Ki A1 / Ki A2A; for binding affinity and selectivity (in words): A2AR over A1R. The protocol:
Cells were washed twice with ice-cold PBS (pH 7.4). Pellet of washed cells was resuspended in hypotonic lysis buffer (10 mM NaCl, 2 mM MgCl2, 1 mM DTT, 10 mM Hepes, 2 mM PMSF, pH 7.4) and sonicated (4 cycles of 10 s duration each). Homogenate were centrifuged at 2,500 rpm for 10 minutes at 4° C. Resulting supernatants was again centrifuged at 38,000 rpm for 30 minutes at 4° C. Pellets obtained were resuspended in Tris-HCl (pH 7.4) buffer. […] Aliquots of membrane proteins from both A2AR and A1R were rapidly frozen and stored at −20° C. Radioligand [^3H] […] DPCPX were purchased from American Radiolabeled Chemicals, St. Louis, USA.
About 10 μg of membrane protein was added to each well of a 96-well filter plate. Incubation buffer containing adenosine deaminase (2.5 U/ml) was added to the membrane protein and incubated at 37° C. for 1 h, to remove endogenous adenosine. Varying concentrations (1 pM to 1 μM) of test compounds of general formula A was added in duplicate and volume was adjusted to 50 μl by adding incubation buffer. […] Filter plates were incubated at 26° C. for 30 minutes and reaction was terminated by rapid filtration of unbound radioligands. Filters containing ligand bound receptors were washed three times with ice-cold washing buffer to completely remove any unbound radioligand or receptor. Finally, 100 μl of scintillation fluid was added to each well and incubated overnight at room temperature. β-counts emitted from bound radioligands ([^3H] ZM241385 and [^3H] DPCPX) were counted using β-counter. Duplicate values of β-counts per minute at corresponding concentrations (1 pM to 1 μM) were added to the data sheet of graph pad prism 4.0. Concentration values were considered as X-values and counts per minute were considered as Y-values (in duplicate). X-values were transformed into log X and Ki value was calculated using nonlinear regression (curve fit program).

For the next series, the target named is T2, human A1R (Homo sapiens, UniProt P30542).
T2 construct: expressed in transfected cells; host or cells: HEK 293T
T2 sequence (P30542 1-326): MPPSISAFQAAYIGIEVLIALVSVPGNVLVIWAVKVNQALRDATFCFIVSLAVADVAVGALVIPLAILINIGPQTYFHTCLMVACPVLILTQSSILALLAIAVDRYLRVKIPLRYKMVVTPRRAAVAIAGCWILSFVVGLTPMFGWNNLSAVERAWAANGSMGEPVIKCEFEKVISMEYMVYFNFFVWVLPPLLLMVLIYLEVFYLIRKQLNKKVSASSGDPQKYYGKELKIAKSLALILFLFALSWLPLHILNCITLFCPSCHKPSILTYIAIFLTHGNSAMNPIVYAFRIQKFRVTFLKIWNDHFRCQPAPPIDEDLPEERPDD
Put plainly: Radioligand competitive binding assay, [3H] DPCPX displacement. To be noted: membranes of transfected HEK 293T cells, 1 nM [3H] DPCPX; read-out: Ki A1. The protocol: About 1×10^6 cells per ml of transfected HEK 293T cells with human A2AR and A1R were centrifuged at 2,500 rpm for 2 minutes in 15 ml centrifuge tubes. Cells were washed twice with ice-cold PBS (pH 7.4). Pellet of washed cells was resuspended in hypotonic lysis buffer (10 mM NaCl, 2 mM MgCl2, 1 mM DTT, 10 mM Hepes, 2 mM PMSF, pH 7.4) and sonicated (4 cycles of 10 s duration each). Homogenate were centrifuged at 2,500 rpm for 10 minutes at 4° C. Resulting supernatants was again centrifuged at 38,000 rpm for 30 minutes at 4° C. Pellets obtained were resuspended in Tris-HCl (pH 7.4) buffer. Membrane protein concentrations were determined using Lowry method (Lowry et al., 1951). Aliquots of membrane proteins from both A2AR and A1R were rapidly frozen and stored at −20° C. Radioligand [^3H] ZM 241385 and [^3H] DPCPX were purchased from American Radiolabeled Chemicals, St. Louis, USA.
About 10 μg of membrane protein was added to each well of a 96-well filter plate. Incubation buffer containing adenosine deaminase (2.5 U/ml) was added to the membrane protein and incubated at 37° C. for 1 h, to remove endogenous adenosine. Varying concentrations (1 pM to 1 μM) of test compounds of general formula A was added in duplicate and volume was adjusted to 50 μl by adding incubation buffer. Further, constant concentration of radioligands (1 nM for [^3H] ZM 241385 and 1 nM of [^3H] DPCPX) was added to respective wells and final volume was adjusted to 200 μl by adding the incubation buffer. Filter plates were incubated at 26° C. for 30 minutes and reaction was terminated by rapid filtration of unbound radioligands. Filters containing ligand bound receptors were washed three times with ice-cold washing buffer to completely remove any unbound radioligand or receptor. Finally, 100 μl of scintillation fluid was added to each well and incubated overnight at room temperature. β-counts emitted from bound radioligands ([^3H] ZM241385 and [^3H] DPCPX) were counted using β-counter. Duplicate values of β-counts per minute at corresponding concentrations (1 pM to 1 μM) were added to the data sheet of graph pad prism 4.0. Concentration values were considered as X-values and counts per minute were considered as Y-values (in duplicate). X-values were transformed into log X and Ki value was calculated using nonlinear regression (curve fit program). The calculated Ki values for A2AR and A1R are given bellow (table 1).

Series [1] has as its system haloperidol induced catalepsy. The series is described as follows: Haloperidol induced catalepsy in mice. It is filed as in vivo, Swiss Albino male mice. To be noted: for catalepsy score: haloperidol 2.5 mg/kg, after 120 min. As for the experimental part: Adult Swiss Albino male mice (4-6 weeks, 20-30 g) were pro-cured from National Institute of Communicable Diseases, Delhi, India and were kept under controlled conditions of temperature (22±1° C.), humidity (60±5%), and illumination (12 h light; 12 h darkness) at the animal house, Dr. B. R. Ambedkar Centre for Bio-medical Research, University of Delhi, Delhi, India. The experimental protocol met the National Guidelines on the ‘Proper Care and Use of Animals in Laboratory Research’ (Indian National Science Academy, New Delhi) and was approved by the Animal Ethics Committee of the department. The procedures adhered to the NIH Guidelines for the Care and Use of Laboratory Animals.
Double distilled filtered and deionized water (Milli-Q-system Waters, Milford, Mass.) was used through out the study. […] Mice were divided into seven groups of four mice each. […] Saline and 1% acacia in saline were injected to two control groups.
The inability of an animal to correct an externally imposed posture (Catalepsy score) was measured at different time intervals with both limbs on a square wooden block (3 cm high) by placing the animals on a flat horizontal surface. The length of time that animals held the bar without any voluntary movement was recorded, with a cutoff time of 3 min. Catalepsy score of each mice in a group was taken to compute the mean value of the group.

The target of another series is T3, human A2A receptors (Homo sapiens, UniProt P29274).
T3 construct: expressed in transfected cells; host or cells: HEK 293T
T3 sequence (P29274 whole entry): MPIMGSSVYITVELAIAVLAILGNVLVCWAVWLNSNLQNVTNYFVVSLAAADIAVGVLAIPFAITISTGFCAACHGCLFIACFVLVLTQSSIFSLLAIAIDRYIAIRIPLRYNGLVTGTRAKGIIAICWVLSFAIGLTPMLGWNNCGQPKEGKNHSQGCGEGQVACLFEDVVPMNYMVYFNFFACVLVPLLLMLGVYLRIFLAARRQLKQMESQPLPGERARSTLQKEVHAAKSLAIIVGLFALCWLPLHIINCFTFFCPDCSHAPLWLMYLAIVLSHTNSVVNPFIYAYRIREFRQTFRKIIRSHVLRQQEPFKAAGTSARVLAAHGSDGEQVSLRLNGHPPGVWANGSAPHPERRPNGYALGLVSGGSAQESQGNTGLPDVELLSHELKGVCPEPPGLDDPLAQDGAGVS
Put plainly: cAMP functional assay in NECA stimulated HEK293T cells. It is filed as cell-based. As for the experimental part: Standard curve was prepared using Logit-Log Paper plot by drawing percent bound (B/Bo) versus concentration of cAMP for the standards. The concentration of the cAMP in the samples was determined by interpolation.

[2] abbreviates: 10 mg/kg ip pre-treatment, mean±SEM, n=4.

Molecules are shown by their SMILES. Several values for one entry are separate records, joined by “and”; a condition that tells them apart may be missing. Identical values can stand only once.

In general, Ki refers to the equilibrium dissociation constant of an inhibitor or competing ligand from its target. Usually melting point stands for the temperature of the solid-liquid transition.

T1 sequence (P29274 whole entry): as above

As for `N#Cc1sc(=S)n(-c2ccccc2)c1/N=C/c1ccc(F)cc1` [Compound 2e, (4E)-4-(4-flurobenzylideneamino)-3-phenyl-2,3-dihydro-2-thioxothiazole-5-carbonitrile], on human A2AR, the Ki was determined as 0.0047 nM and the “A1/A2A (selectivity)” value was 0.13.

`CCCCn1c(/N=C/c2ccc(Cl)cc2)c(C#N)sc1=S` [Compound 2h]: on human A2AR, the “binding affinity and selectivity (in words)” value is “both high binding affinity and selectivity”; the Ki turned out to be 9.6 nM; the “A1/A2A (selectivity)” value is 2565 and 2565.62. Moreover, the Ki at human A1R was 24600 nM.

Turning to `CCn1c(/N=C/c2ccc(F)cc2)c(C#N)sc1=S` [Compound 2a, (4E)-4-(4-fluorobenzylideneamino)-3-ethyl-2,3-dihydro-2-thioxothiazole-5-carbonitrile], on human A2AR, the Ki was 11 nM and the “A1/A2A (selectivity)” value is listed as 0.000053.

As to `CCCn1c(/N=C/c2ccc(Cl)cc2)c(C#N)sc1=S` [Compound 2g, (4E)4-(4-chlorobenzylideneamino)-3-propyl-2,3-dihydro-2-thioxothiazole-5-carbonitrile], the figures for the Ki at human A2AR and at human A1R were 54.8 nM and 2.32 nM, respectively. The “A1/A2A (selectivity)” value at human A2AR stood at 0.042.

For `CCn1c(/N=C/c2ccc(Cl)cc2)c(C#N)sc1=S` [Compound 2f, (4E)-4-(4-chlorobenzylideneamino)-3-ethyl-2,3-dihydro-2-thioxothiazole-5-carbonitrile], on human A2AR, the “A1/A2A (selectivity)” value is 13.76.

In turn, `N#Cc1sc(=S)n(-c2ccccc2)c1/N=C/c1ccc(Cl)cc1` [Compound 2i, (4E)4-(4-chlorobenzylideneamino)-3-phenyl-2,3-dihydro-2-thioxothiazole-5-carbonitrile] yielded a melting point of 187 to 189 °C. Moreover, on human A2AR, the “binding affinity and selectivity (in words)” value is “both high binding affinity and selectivity”; the Ki turned out to be 0.14 nM; the “A1/A2A (selectivity)” value is 2947 and 2947.85. On human A1R, the Ki came out at 413 nM.

In the case of `CCCCn1c(N=Cc2ccc(F)cc2)c(C#N)sc1=S` [Compound 2c, (4E)-4-flurobenzylideneamino)-3-butyl-2,3-dihydro-2-thioxothiazole-5-carbonitrile], on human A2AR, the Ki turned out to be 0.027 nM and the “A1/A2A (selectivity)” value turned out to be 618.51. Moreover, at human A1R, the Ki came out at 16.7 nM.

Consider `N#Cc1sc(=S)n(-c2ccccc2)c1/N=C/c1ccc(Br)cc1` [Compound 2n, (4E)4-(4-bromobenzylideneamino)-3-phenyl-2,3-dihydro-2-thioxothiazole-5-carbonitrile], for which the melting point is 185 to 187 °C. In addition, the Ki on human A2AR is 0.004 nM and 0.0042 nM. Moreover, the Ki at human A1R is 186 nM. Further, in series [1] (setting [2]), the catalepsy score was found to be 0.75±0.144. Also, the catalepsy score in series [1] (pre-treatment at 5, 10, 15, 20 mg/kg) was determined as 0.75±0.140. In series [1] (without haloperidol, up to 120 minutes), the “catalepsy score, compound alone” value is on record as “zero”.

Consider `CCn1c(/N=C/c2ccc(Br)cc2)c(C#N)sc1=S` [Compound 2j, (4E)-4-(4-Bromobenzylideneamino)-3-ethyl-2,3-dihydro-2-thioxothiazole-5-carbonitrile], for which, on human A2AR, the Ki was found to be 0.01 nM and the “A1/A2A (selectivity)” value was determined as 0.074.

Take `CCCn1c(/N=C/c2ccc(F)cc2)c(C#N)sc1=S` [Compound 2b, (4E)4-(4-fluorobenzylideneamino)-3-propyl-2,3-dihydro-2-thioxothiazole-5-carbonitrile]: at human A2AR, the “binding affinity and selectivity (in words)” value is “both high binding affinity and selectivity”; the Ki is 0.03 nM; the “A1/A2A (selectivity)” value worked out at 3393.3. Besides, the Ki at human A1R was 102 nM.

Turning to `N#Cc1sc(=S)n(CCc2ccccc2)c1/N=C/c1ccc(Br)cc1` [Compound 2m, (4E)4-(4-bromobenzylideneamino)-3-phenylethyl-2,3-dihydro-2-thioxothiazole-5-carbonitrile], at human A2AR, the Ki is 0.067 nM and the “A1/A2A (selectivity)” value was 3.73. For the same compound, at human A1R, the Ki was found to be 0.25 nM.

On to `N#Cc1sc(=S)n(CCc2ccccc2)c1N=Cc1ccc(F)cc1` [Compound 2d, (4E)-4-(4-flurobenzylideneamino)-3-phenylethyl-2,3-dihydro-2-thioxothiazole-5-carbonitrile], for which, on human A2AR, the Ki was determined as 2.64 nM and the “A1/A2A (selectivity)” value is reported as 336.81. The Ki on human A1R came to 889 nM.

With `Nc1nc2c(cnn2CCc2ccccc2)c2nc(-c3ccco3)nn12` [SCH58261, reference compound], on human A2AR (reference SCH58261), the “selectivity to A2AR” value stood at 483 fold. On human A2A receptors, the cAMP concentration is 0.55 pmol/mL. Moreover, the catalepsy score in series [1] (setting [2]) amounted to 0.65±0.125; in series [1] (10 mg/kg ip pre-treatment, mean±SEM, n=4, listed as SCH 58261), 0.625±0.125.

As to `CCCCn1c(/N=C/c2ccc(Br)cc2)c(C#N)sc1=S` [Compound 2l, (4E)-4-(4-bromobenzylideneamino)-3-butyl-2,3-dihydro-2-thioxothiazole-5-carbonitrile], on human A2AR, the Ki stood at 7.61 nM and the “A1/A2A (selectivity)” value was determined as 0.013. Besides, the Ki on human A1R came to 0.1 nM.

As to `CCCn1c(/N=C/c2ccc(Br)cc2)c(C#N)sc1=S` [Compound 2k, (4E)4-(4-bromobenzylideneamino)-3-propyl-2,3-dihydro-2-thioxothiazole-5-carbonitrile], on human A2AR, the Ki turned out to be 1.8 nM and the “A1/A2A (selectivity)” value stood at 337.05. At human A1R, the Ki turned out to be 607 nM.

The record behind these values is patent US9518033B2, “(4E)-4-(4-substituted benzylideneamino)-2,3-dihydro-3-substituted-2-thioxothiazole-5-carbonitriles as A2AR antagonist and process for preparation thereof” (COUNCIL OF SCIENTIFIC & INDUSTRIAL RESEARCH, priority 2013, dated 2016).
